Experimental data as given in US9018383B2, “Acylamino-substituted cyclic carboxylic acid derivatives and their use as pharmaceuticals” (Sanofi, priority 2009, dated 2015).
pIC50: −log10 of the molar value.

The compounds below were run against human Edg-2 receptor (Homo sapiens, UniProt Q92633) (assay: Determination of Edg-2 receptor inhibition by FLIPR measurements (LPA-mediated calcium liberation)). Conditions: CHO cells overexpressing human Edg-2 receptor, LPA 100 nM, fluo-4 calcium fluorescence; read-out: Inhibitory concentrations IC50 for inhibition of the Edg-2 receptor.
Chain of human Edg-2 receptor (Q92633 whole entry): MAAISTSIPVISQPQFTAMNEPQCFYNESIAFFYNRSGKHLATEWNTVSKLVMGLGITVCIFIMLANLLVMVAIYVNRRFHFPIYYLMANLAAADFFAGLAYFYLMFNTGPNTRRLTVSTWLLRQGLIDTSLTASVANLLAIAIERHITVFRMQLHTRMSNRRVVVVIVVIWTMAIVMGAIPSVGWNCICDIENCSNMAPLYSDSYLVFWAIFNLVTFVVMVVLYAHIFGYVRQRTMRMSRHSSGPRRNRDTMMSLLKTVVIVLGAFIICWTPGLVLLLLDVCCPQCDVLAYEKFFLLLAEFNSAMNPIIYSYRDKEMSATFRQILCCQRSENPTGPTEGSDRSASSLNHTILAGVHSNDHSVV
Assay type: cell-based
Summary of the method: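 IC50 was derived from % inhibition of the baseline-corrected peak fluo-4 signal relative to DMSO, measured in triplicate. Compound was added ~5 min before 100 nM LPA (18:1) to human Edg-2–expressing CHO cells in pH 7.5 HBSS buffer with probenecid and HEPES, and fluorescence was monitored ~3 min.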

pIC50	SMILES
6.00 to 7.00	COc1ccc(C(=O)NC2(C(=O)O)CCC(C)C2)cc1OCCc1cccc(C)c1 (stereo not shown) [Example 373]
4.52 to 6.00	COc1ccc(C(=O)NC2(C(=O)O)CCOCC2)cc1OCCc1cccc(C)c1 [Example 37]
4.52 to 6.00	COc1ccc(C(=O)NC2(C(=O)O)CCCCC2C)cc1OCCc1cccc(C)c1 (stereo not shown) [Example 32]
> 7.00	COc1ccc(C(=O)NC2(C(=O)O)CCCCCCC2)cc1OCCc1cccc(CCO)c1 [Example 108, 1-(3-{2-[3-(2-Hydroxy-ethyl)-phenyl]-ethoxy}-4-methoxy-benzoylamino)-cyclooctanecarboxylic acid]
> 7.00	COc1ncc(C(=O)N[C@]2(C(=O)O)CC[C@@H](C)CC2)cc1OCCc1cccc(CCO)c1 [Example 90, trans-1-[(5-{2-[3-(2-Hydroxy-ethyl)-phenyl]-ethoxy}-6-methoxy-pyridine-3-carbonyl)-amino]-4-methyl-cyclohexanecarboxylic acid]
6.00 to 7.00	COc1ccc(C(=O)NC2(C(=O)O)CCCCCC2)cc1OCCc1cccc(C2COC2)c1 [Example 129, 1-{4-Methoxy-3-[2-(3-oxetan-3-yl-phenyl)-ethoxy]-benzoylamino}-cycloheptanecarboxylic acid]
> 7.00	Cc1cccc(CCOc2cc(C(=O)NC3(C(=O)O)CCCCCC3)ccc2C(C)F)c1 (stereo not shown) [Example 63, 1-[4-(1-Fluoro-ethyl)-3-(2-m-tolyl-ethoxy)-benzoylamino]-cycloheptanecarboxylic acid]
> 7.00	COc1ccc(C(=O)NC2(C(=O)O)CCC3(CC2)OCCO3)cc1OCCc1cccc(C)c1 [Example 54, 8-[4-Methoxy-3-(2-m-tolyl-ethoxy)-benzoylamino]-1,4-dioxa-spiro[4.5]decane-8-carboxylic acid]
6.00 to 7.00	CC[C@H]1CC[C@@](NC(=O)c2cnc(OC)c(-c3ccc(Cl)c(C(F)(F)F)c3)c2)(C(=O)O)CC1 [Example 408]
4.52 to 6.00	COc1ccc(C(=O)NC2(C(=O)O)CCCC2C)cc1OCCc1cccc(C)c1 (stereo not shown) [Example 49]
> 7.00	COc1ccc(C(=O)N[C@]2(C(=O)O)CC[C@H](C)CC2)cc1OCCc1cc(OC(F)(F)F)ccc1F [Example 405, cis-1-{3-[2-(2-Fluoro-5-trifluoromethoxy-phenyl)-ethoxy]-4-methoxy-benzoylamino}-4-methyl-cyclohexanecarboxylic acid]
6.00 to 7.00	CC[C@H]1CC[C@](NC(=O)c2ccc(CO)c(-c3cccc(C(F)(F)F)c3)c2)(C(=O)O)CC1 [Example 430, cis-4-Ethyl-1-[(6-hydroxymethyl-3′-trifluoromethyl-biphenyl-3-carbonyl)-amino]-cyclohexanecarboxylic acid]
> 7.00	CC[C@H]1CC[C@](NC(=O)c2cnc(OCCO)c(-c3cccc(OC(F)(F)F)c3)c2)(C(=O)O)CC1 [Example 416]
4.52 to 6.00	COCCOc1ccc(C(=O)N[C@]2(C(=O)O)CC[C@@H](C)CC2)cc1OCCc1cccc(C)c1 [Example 117, trans-1-[4-(2-Methoxy-ethoxy)-3-(2-m-tolyl-ethoxy)-benzoylamino]-4-methyl-cyclohexane-carboxylic acid]
> 7.00	CC[C@H]1CC[C@@](NC(=O)c2cc(F)c(OCCO)c(-c3cccc(C(F)(F)F)c3)c2)(C(=O)O)CC1 [Example 362, trans-4-Ethyl-1-{[5-fluoro-6-(2-hydroxy-ethoxy)-3′-trifluoromethyl-biphenyl-3-carbonyl]-amino}-cyclohexanecarboxylic acid]
> 7.00	COc1ncc(C(=O)N[C@]2(C(=O)O)CC[C@@H](C)CC2)cc1OCCc1ccccc1 [Example 83, trans-1-{[6-Methoxy-5-(2-phenyl-ethoxy)-pyridine-3-carbonyl]-amino}-4-methyl-cyclohexanecarboxylic acid]
> 7.00	CC[C@H]1CC[C@](NC(=O)c2cc(F)c(OC)c(-c3ccc(OC)c(Cl)c3)c2)(C(=O)O)CC1 [Example 447, Cis-1-[(3′-chloro-5-fluoro-6,4′-dimethoxy-biphenyl-3-carbonyl)-amino]-4-ethyl-cyclohexanecarboxylic acid]
> 7.00	Cc1cccc(CCOc2cc(C(=O)N[C@]3(C(=O)O)CC[C@@H](C)CC3)ccc2OCCO)c1 [Example 122, trans-1-[4-(2-Hydroxy-ethoxy)-3-(2-m-tolyl-ethoxy)-benzoylamino]-4-methyl-cyclohexanecarboxylic acid]
> 7.00	COc1ncc(C(=O)N[C@]2(C(=O)O)CC[C@@H](C)CC2)cc1OCCc1cccc(C)c1 [Example 80, trans-1-{[6-Methoxy-5-(2-m-tolyl-ethoxy)-pyridine-3-carbonyl]-amino}-4-methyl-cyclohexanecarboxylic acid]
> 7.00	CC[C@H]1CC[C@@](NC(=O)c2cnc(OC)c(OCCc3cccc(Cl)c3)c2)(C(=O)O)CC1 [Example 397, trans-1-({5-[2-(3-Chloro-phenyl)-ethoxy]-6-methoxy-pyridine-3-carbonyl}-amino)-4-ethyl-cyclohexanecarboxylic acid]
> 7.00	COc1ccc(C(=O)NC2(C(=O)O)CCCC3(CC2)OCCO3)cc1OCCc1cccc(C)c1 (stereo not shown) [Example 51, 8-[4-Methoxy-3-(2-m-tolyl-ethoxy)-benzoylamino]-1,4-dioxa-spiro[4.6]undecane-8-carboxylic acid]
6.00 to 7.00	COc1ccc(C(=O)NC2(C(=O)O)CCCCCC2)cc1OCC1CC=CCC1 (stereo not shown) [Example 12]

pIC50	SMILES
> 7.00	COc1ccc(C(=O)NC2(C(=O)O)CCCC(C)CC2)cc1OCCc1cccc(C)c1 (stereo not shown) [Example 46]
> 7.00	COc1ncc(C(=O)NC2(C(=O)O)CCCCCC2)cc1-c1cccc(C(F)(F)F)c1 [Example 100]
> 7.00	COc1ccc(C(=O)NC2(C(=O)O)CC3CCC(C3)C2)cc1OCCc1cccc(C)c1 (stereo not shown) [Example 47]
6.00 to 7.00	CC[C@H]1CC[C@@](NC(=O)c2ccc(OC)c(-c3cccc(OC(F)(F)F)c3)c2)(C(=O)O)CC1 [Example 328]
> 7.00	COc1ncc(C(=O)N[C@]2(C(=O)O)CC[C@H](C)CC2)cc1-c1cc(F)c(F)c(F)c1 [Example 313]
> 7.00	CC[C@H]1CC[C@](NC(=O)c2ccc(C(F)(F)F)c(-c3ccc(OC)c(Cl)c3)c2)(C(=O)O)CC1 [Example 125, cis-1-[(3′-Chloro-4′-methoxy-6-trifluoromethyl-biphenyl-3-carbonyl)-amino]-4-ethyl-cyclohexanecarboxylic acid]
4.52 to 6.00	COc1ncc(C(=O)NC2(C(=O)O)CCCCCC2)cc1OCCc1cc(C)ccc1C [Example 87, 1-({5-[2-(2,5-Dimethyl-phenyl)-ethoxy]-6-methoxy-pyridine-3-carbonyl}-amino)-cycloheptanecarboxylic acid]
> 7.00	COc1ccc(C(=O)N[C@]2(C(=O)O)CC[C@@H](C)CC2)cc1OCCc1cccc(CCO)c1 [Example 110, trans-1-(3-{2-[3-(2-Hydroxy-ethyl)-phenyl]-ethoxy}-4-methoxy-benzoylamino)-4-methyl-cyclohexanecarboxylic acid]
> 7.00	CC[C@H]1CC[C@@](NC(=O)c2cnc(OC)c(-c3ccc(OC)c(F)c3)c2)(C(=O)O)CC1 [Example 412]
> 7.00	COc1ncc(C(=O)N[C@]2(C(=O)O)CC[C@@H](C)CC2)cc1-c1cc(F)c(F)c(F)c1 [Example 314]
4.52 to 6.00	CC[C@H]1CC[C@](C(=O)O)(N(C)C(=O)c2ccc(OC)c(OCCc3cccc(C)c3)c2)CC1 [Example 441, trans-4-Ethyl-1-{[4-methoxy-3-(2-m-tolyl-ethoxy)-benzoyl]-methyl-amino}-cyclohexanecarboxylic acid]
6.00 to 7.00	O=C(NC1(C(=O)O)CCCCCC1)c1ccc(OCCO)c(OCCc2ccccc2)c1 [Example 422, 1-[4-(2-Hydroxy-ethoxy)-3-phenethyloxy-benzoylamino]cycloheptanecarboxylic acid]
> 7.00	CC[C@H]1CC[C@](NC(=O)c2ccc(OC)c(-c3ccc(OC)c(Cl)c3)c2)(C(=O)O)CC1 [Example 351]
> 7.00	CC[C@H]1CC[C@@](NC(=O)c2cnc(OC)c(-c3cccc(Cl)c3Cl)c2)(C(=O)O)CC1 [Example 309]
> 7.00	COc1ccc(C(=O)NC2(C(=O)O)CC3CCC(C3)C2)cc1OCCc1cccc(C)c1 (stereo not shown) [Example 31]
6.00 to 7.00	COc1ccc(C(=O)NC2(C(=O)O)CCCCCC2)cc1-c1cccc(C2COC2)c1 [Example 457, 1-[(6-Methoxy-3′-oxetan-3-yl-biphenyl-3-carbonyl)-amino]-cycloheptanecarboxylic acid]
> 7.00	COc1ncc(C(=O)N[C@]2(C(=O)O)CC[C@@H](C)CC2)cc1OCCc1cccc(Cl)c1 [Example 85, trans-1-({5-[2-(3-chloro-phenyl)-ethoxy]-6-methoxy-pyridine-3-carbonyl}-amino)-4-methyl-cyclohexanecarboxylic acid]
4.52 to 6.00	COc1ccc(C(=O)N[C@]2(C(=O)O)CC[C@@H](C)CC2)cc1-c1cccc(OC(F)(F)F)c1 [Example 330]
> 7.00	COc1ncc(C(=O)N[C@]2(C(=O)O)CC[C@H](C)CC2)cc1OCCc1ccccc1 [Example 400, cis-1-{[6-Methoxy-5-(2-phenyl-ethoxy)-pyridine-3-carbonyl]-amino}-4-methyl-cyclohexanecarboxylic acid]
> 7.00	COc1ccc(C(=O)N[C@@]2(C(=O)O)C[C@@H]3CC[C@H]2O3)cc1OCCc1cccc(C)c1 (racemic) [Example 126, (1R,2S,4S)-2-[4-Methoxy-3-(2-m-tolyl-ethoxy)-benzoylamino]-7-oxa-bicyclo[2.2.1]heptane-2-carboxylic acid and (1S,2R,4R)-2-[4-methoxy-3-(2-m-tolyl-ethoxy)-benzoylamino]-7-oxa-bicyclo[2.2.1]heptane-2-carboxylic acid]
> 7.00	CC[C@H]1CC[C@](NC(=O)c2cc(F)c(OCCO)c(-c3cccc(OC(F)(F)F)c3)c2)(C(=O)O)CC1 [Example 382]
